Patent US20120184590A1, “FORMULATIONS OF INDOLE-3-CARBINOL DERIVED ANTITUMOR AGENTS WITH INCREASED ORAL BIOAVAILABILITY” (UNIVERSITY OF KANSAS, priority 2009, published 2012)

Assays:
[1] = Stability of SR13668 in Solutol (25° C. and 4° C.), HPLC/Fluorescence; format: physicochemical; settings: for stability: 25° C. and 4° C.; for SR13668 assay, stability of SR13668/Solutol aqueous solution: aqueous sample (theoretical 1.2000); for SR13668 assay, stability in Solutol: solid sample in Eppendorf tube
Protocol: A batch of 5 mg SR13668/g Solutol was made by stirring at 95° C. for 24 hrs. […] The sample was centrifuged while warm and no crystals were observed on the bottom of the tube. The sample was assayed from the top, middle and bottom of the centrifuge tube and there was no significant difference in the measurements. The SR13668 assay is an isocratic HPLC method with Fluorescence detection. The SR13668 concentration in Solutol was determined to be 5.00±0.09 mg/g (n=5).
Three types of samples from the above formulation (a. Solid Samples, b. Aqueous Solution and c. Solid stored and combined with water before assay) were stored at 25° C. (constant temperature bath) and 4° C. (refrigerator) and assayed weekly with the same HPLC/Fluorescence analytical method for 1-month.
Eppendorf tubes containing 1-mL samples of the above 5 mg SR13668/g Solutol solution were capped and stored under the two temperature conditions described above. At each time point the samples were melted and centrifuged at 95° C. No solids were ever observed in these samples.
In a 50-mL centrifuge tube, 12 g of the 5 mg SR13668/g Solutol melt was accurately weighed. The tube was tared and water, warmed to 70° C., was added to the 50 mL mark on the tube and weighed. The concentration of SR13668 in the aqueous solution was calculated based on the average SR13668/Solutol concentration of 5.00±0.09 mg/g, the weight of the Solutol and the total weight of solution in the tube. The tube was stored under the two temperature conditions described previously and the assayed amounts were compared with the theoretical. Observations were made on the tubes and there were no significant changes in the solutions and no solids were observed. The 25° C. tube did get a cloudy film layer, possibly biological growth. The layer dispersed after vigorous shaking. The 4° C. samples are cloudy, but clear up when warmed to room temperature. See results Table 8 and FIG. 5.
An accurately weighed 200 mg aliquot of the above 5 mg/g Solutol solution was stored at 25° C. and 4° C. At each time point, the solids were melted at 90° C. and 800 mg of accurately weighed 90° C. water was added. The samples were mixed and observations made. In all cases no solids were observed. A sample aliquot of the above aqueous solution was analyzed by HPLC/Fluorescence and the results compared with theoretical. See results Table 9 and FIG. 6. The analytical method is validated ±5% from theoretical. The majority of the samples fell within this limit.

[2] = Time for syringe dosage forms to dissolve in warm water; format: physicochemical; settings: shaken in warm water (approximately 40° C.)
Protocol: A similar set of sample tubes was prepared for a monkey study. Twenty-eight tubes with 11.2±0.1 g of 5 mg/g SR13668 in Solutol were prepared providing a dose of 56 mg SR13668 per tube. A set of 3-mL disposable plastic syringes were prepared containing a 5 mg dose of SR13668 in either Solutol, Vit E TPGS or 1:1 Solutol:Vit E TPGS. The syringes were prepared so the dosage form could be pushed out and dissolved in warm water to administer to monkeys by gavage. The syringes were prepared by (a) cutting off the tip-end at the 0.1 mL mark of a plastic, disposable 3-mL syringe, (b) pulling back the plunger, (c) filling the syringe by weight with the liquid melt at 65° C. to give the correct dosage and (d) allowing the formulation to harden. Each formulation contained between 3.5-4.2 mg SR13668/g matrix and approximately 1.2 g of the formulation was needed in each syringe to give a 5 mg dose. The syringes were fairly easy to make and to expel the dosage form into warm water. The doses where shaken in warm water (approximately 40° C.) and took the following amounts of time to dissolve: <1 min. for Solutol, 15 min for 1:1 Solutol:Vit E TPGS, and 37 min for Vit E TPGS.

[3] = stored as solid, prepared as aqueous solution, 4° C. storage, 0
[4] = stored as solid, prepared as aqueous solution, 4° C. storage, Day
[5] = stored as solid, prepared as aqueous solution, 4° C. storage, Day 7
[6] = stored as solid, prepared as aqueous solution, 4° C. storage, Day 14
[7] = stored as solid, prepared as aqueous solution, 4° C. storage, Day 21
[8] = stored as solid, prepared as aqueous solution, 4° C. storage, Day 28
[9] = stored as solid, prepared as aqueous solution, 25° C. storage, 0
[10] = stored as solid, prepared as aqueous solution, 25° C. storage, Day
[11] = stored as solid, prepared as aqueous solution, 25° C. storage, Day 7
[12] = stored as solid, prepared as aqueous solution, 25° C. storage, Day 14
[13] = stored as solid, prepared as aqueous solution, 25° C. storage, Day 21
[14] = stored as solid, prepared as aqueous solution, 25° C. storage, Day 28

With `CCOC(=O)c1ccc2[nH]c3c(OC)c4[nH]c5ccc(C(=O)OCC)cc5c4cc3c2c1` [SR13668, 2,10-dicarbethoxy-6-methoxy-5,7-dihydro-indolo-(2,3-b)carbazole] the “stability” value ([1]; 5 mg SR13668/g Solutol, solid samples) was “stable within the error of the assay and no degradation was observed”, the “stability” value ([1]; SR13668/Solutol aqueous solution) was “stable within error and no drug degradation was observed” and the “SR13668 assay, stability of SR13668/Solutol aqueous solution” value ([1]; 4° C. storage, Day) was 1.1384 mg SR13668/g Solutol. For the same molecule, the “SR13668 assay, stability of SR13668/Solutol aqueous solution” value ([1]; 4° C. storage, Day 7) was 1.1758 mg SR13668/g Solutol, the “SR13668 assay, stability of SR13668/Solutol aqueous solution” value ([1]; 4° C. storage, Day 14) was 1.1981 mg SR13668/g Solutol and the “SR13668 assay, stability of SR13668/Solutol aqueous solution” value ([1]; 4° C. storage, Day 21) was 1.2509 mg SR13668/g Solutol. The “SR13668 assay, stability of SR13668/Solutol aqueous solution” value ([1]; 4° C. storage, Day 28) was 1.1985 mg SR13668/g Solutol, the “SR13668 assay, stability of SR13668/Solutol aqueous solution” value ([1]; 4° C. storage, Day 35) was 1.1814 mg SR13668/g Solutol and the “SR13668 assay, stability of SR13668/Solutol aqueous solution” value ([1]; 25° C. storage, Day) was 1.5040 mg SR13668/g Solutol. The “SR13668 assay, stability of SR13668/Solutol aqueous solution” value ([1]; 25° C. storage, Day 7) was 1.1311 mg SR13668/g Solutol, the “SR13668 assay, stability of SR13668/Solutol aqueous solution” value ([1]; 25° C. storage, Day 14) was 1.2256 mg SR13668/g Solutol and the “SR13668 assay, stability of SR13668/Solutol aqueous solution” value ([1]; 25° C. storage, Day 21) was 1.2663 mg SR13668/g Solutol. For the same molecule, the “SR13668 assay, stability of SR13668/Solutol aqueous solution” value ([1]; 25° C. storage, Day 28) was 1.2116 mg SR13668/g Solutol, the “SR13668 assay, stability of SR13668/Solutol aqueous solution” value ([1]; 25° C. storage, Day 35) was 1.1942 mg SR13668/g Solutol and the “SR13668 assay, stability in Solutol” value ([1]; 4° C. storage, 0 (t = 0 melt samples)) was 5.00 mg SR13668/g Solutol. For the same molecule, the “SR13668 assay, stability in Solutol” value ([1]; 4° C. storage, Day) was 5.05 mg SR13668/g Solutol, the “SR13668 assay, stability in Solutol” value ([1]; 4° C. storage, Day 7) was 4.97 mg SR13668/g Solutol and the “SR13668 assay, stability in Solutol” value ([1]; 4° C. storage, Day 14) was 5.33 mg SR13668/g Solutol. The “SR13668 assay, stability in Solutol” value ([1]; 4° C. storage, Day 21) was 5.06 mg SR13668/g Solutol, the “SR13668 assay, stability in Solutol” value ([1]; 4° C. storage, Day 28) was 4.97 mg SR13668/g Solutol and the “SR13668 assay, stability in Solutol” value ([1]; 4° C. storage, Day 35) was 4.87 mg SR13668/g Solutol. The “SR13668 assay, stability in Solutol” value ([1]; 25° C. storage, 0 (t = 0 melt samples)) was 5.00 mg SR13668/g Solutol, the “SR13668 assay, stability in Solutol” value ([1]; 25° C. storage, Day) was 4.93 mg SR13668/g Solutol and the “SR13668 assay, stability in Solutol” value ([1]; 25° C. storage, Day 7) was 5.10 mg SR13668/g Solutol. For the same molecule, the “SR13668 assay, stability in Solutol” value ([1]; 25° C. storage, Day 14) was 5.19 mg SR13668/g Solutol, the “SR13668 assay, stability in Solutol” value ([1]; 25° C. storage, Day 21) was 5.14 mg SR13668/g Solutol and the “SR13668 assay, stability in Solutol” value ([1]; 25° C. storage, Day 28) was 5.00 mg SR13668/g Solutol. The “SR13668 assay, stability in Solutol” value ([1]; 25° C. storage, Day 35) was 4.93 mg SR13668/g Solutol, the “stability” value ([1]; stored as solid, prepared as aqueous solution) was “no trends or indications that the samples are unstable” and the “% difference from Theory” value [1, 3] was −6.71%. For the same molecule, the “Measured mg SR13668/g Solutol” value [1, 3] was 0.9238 mg SR13668/g Solutol, the “% difference from Theory” value [1, 4] was −7.00% and the “Measured mg SR13668/g Solutol” value [1, 4] was 0.8804 mg SR13668/g Solutol. The “% difference from Theory” value [1, 5] was 0.78%, the “Measured mg SR13668/g Solutol” value [1, 5] was 0.9866 mg SR13668/g Solutol and the “% difference from Theory” value [1, 6] was 2.91%. The “Measured mg SR13668/g Solutol” value [1, 6] was 1.0608 mg SR13668/g Solutol, the “% difference from Theory” value [1, 7] was −2.29% and the “Measured mg SR13668/g Solutol” value [1, 7] was 0.9809 mg SR13668/g Solutol. For the same molecule, the “% difference from Theory” value [1, 8] was −4.87%, the “Measured mg SR13668/g Solutol” value [1, 8] was 0.9160 mg SR13668/g Solutol and the “% difference from Theory” value [1, 9] was −11.50%. For the same molecule, the “Measured mg SR13668/g Solutol” value [1, 9] was 0.8630 mg SR13668/g Solutol, the “% difference from Theory” value [1, 10] was −6.56% and the “Measured mg SR13668/g Solutol” value [1, 10] was 0.9955 mg SR13668/g Solutol. For the same molecule, the “% difference from Theory” value [1, 11] was 3.38%, the “Measured mg SR13668/g Solutol” value [1, 11] was 1.0308 mg SR13668/g Solutol and the “% difference from Theory” value [1, 12] was 3.40%. The “Measured mg SR13668/g Solutol” value [1, 12] was 0.9609 mg SR13668/g Solutol, the “% difference from Theory” value [1, 13] was −5.45% and the “Measured mg SR13668/g Solutol” value [1, 13] was 0.9374 mg SR13668/g Solutol. For the same molecule, the “% difference from Theory” value [1, 14] was −4.84%, the “Measured mg SR13668/g Solutol” value [1, 14] was 0.9372 mg SR13668/g Solutol and the time to dissolve ([2]; 5 mg dose of SR13668 in 1:1 Solutol:Vit E TPGS) was 15 min. The time to dissolve ([2]; 5 mg dose of SR13668 in Solutol) was less than 1 min and the time to dissolve ([2]; 5 mg dose of SR13668 in Vit E TPGS) was 37 min.
